Reference: patent publication US20140378454A1, “NOVEL METHODS” (XSPRAY MICROPARTICLES AB, priority 2012, published 2014)
Counter-ions that a name gives are not always drawn. Blank lines part the entries; values can stand above or below the compound they belong to.

Tests used:
Type in all cases: physicochemical
[1] = Dissolution measurement assay (apparent solubility) in FaSSIF, pH 6.5; parameters: AUC/90 min / AUC/80 min: concentration or dose not given beside the values; settings: for AUC/80 min: during 80 min dissolution
[2] = Dissolution rate measurement in sink conditions, flow through cell system, FaSSIF, 37° C.; settings: sink condition in FaSSIF; for Initial Dissolution Rate: initial slope of accumulated % solubilized vs time, 0 to 10 minutes
Experimental: The temperature of the apparatus was set to 37° C. The amount of powder added into the cell depends on drug load of the powder: The exact amount of powder was calculated from results obtained from drug load analysis of the powders.
Typically, 3.5 to 7 mg PKI was added into the flow through cell and a flow rate between 8 and 16 ml medium/min (preferably about 8 ml medium/min) was pumped through the powder. One ml samples of the medium passing through the cell were collected at predetermined times. […] Samples were taken after 0, 0.5, 1, 1.5, 2, 3, 4, 5, 6, 7, 8, 9, 10, 15, 20, 25, 30, 35 and 40 min from the moment the medium comes out from the flow through cell. The accumulated % solubilized of the amount of active substance added into the flow through cell was calculated and plotted against time (min). The initial slope (“initial dissolution rate”) of the graph was estimated, as measured during 0 to 10 minutes, and taken as the dissolution rate of the material in sink condition at 37° C. in the given dissolution medium.

[3] = Dissolution measurement assay (apparent solubility) in FeSSIF, pH 5; settings: for Conc (mg/L) 5 min: 5 minutes dissolution; for Conc (mg/L) 90 min: 90 minutes dissolution
Experimental: The method consists of adding the wished amount of powder of hybrid nanoparticles into a glass vial and then pouring in it the appropriate medium (typically FaSSIF, FeSSIF or SGF). The medium was prepared in accordance with the manufacturer's instructions. The amount of powder added depends on the wished “total PKI concentration”. […] For other experiments, the drug load was first estimated by HPLC and the amount of powder to obtain the drug concentration was calculated.
Typically, the powder was added in a 8 mL glass bottle and 7 mL of solution was added (typically FaSSIF, FeSSIF or SGF). The glass bottle was put on a shaker (approximately 1 rotation per minute) for dissolution. Samples of 500 μl where taken after different times, and subsequently centrifuged at approximately 15000 g for 3 minutes. The resulting supernatant was then analyzed by HPLC (C18 column Eclipse, 4.6 mm×15 cm, 1 mL/min, detection at 254-400 nM. Generally samples were taken after 5, 30 and 90 min and eventually 150 min.
A number of experiments were carried out, wherein nilotinib base or nilotinib HCl represented the protein kinase inhibitor. The experiments were carried out by measuring concentration of solubilized PKI (mg/L) after 5, 30 and 90 minutes dissolution in a solution at about pH 6.5, namely FaSSIF (Fasted State Simulated Intestinal Fluid). […] Samples of the solution were taken at various time intervals and the amount of protein kinase inhibitor was measured by the dissolution measurement assay described above.

[4] = concentration of nilotinib HCl, FaSSIF solution (pH 6.5), 5 minutes dissolution, HCl
[5] = concentration of nilotinib HCl, FaSSIF solution (pH 6.5), 30 minutes dissolution, HCl
[6] = concentration of nilotinib HCl, FaSSIF solution (pH 6.5), 90 minutes dissolution, HCl
[7] = nilotinib HCl, FaSSIF solution (pH 6.5), 30 minutes dissolution, HCl
[8] = nilotinib HCl, FaSSIF solution (pH 6.5), Area Under the Curve during 90 minutes dissolution, HCl
[9] = concentration of erlotinib HCl, FeSSIF solution (pH 5)
[10] = concentration of nilotinib HCl, FeSSIF solution (pH 5)

Structure (SMILES): CNC(=O)c1cc(Oc2ccc(NC(=O)Nc3ccc(Cl)c(C(F)(F)F)c3)cc2)ccn1 [Exp 142, sorafenib tosylate]
Conc (mg/L) 3 min ([1]; 3 min, pH 6.5): 59.1 mg/L
% solubilized 40 min. ([1]; 40 min, pH 6.5): 34.4%
Conc (mg/L) 40 min ([1]; 40 min, pH 6.5): 343.5 mg/L
Conc (mg/L) 80 min ([1]; 80 min, pH 6.5): 311.5 mg/L

Structure (SMILES): Cc1cn(-c2cc(NC(=O)c3ccc(C)c(Nc4nccc(-c5cccnc5)n4)c3)cc(C(F)(F)F)c2)cn1 [Exp 1, Nilotinib HCl]
Conc (mg/L) 5 min [1, 4]: 0.1 mg/L
Conc (mg/L) 30 min [1, 5]: 0.2 mg/L
Conc (mg/L) 90 min [1, 6]: 0.1 mg/L
% solubilized 30 min. [1, 7]: 0.20%
AUC/90 min Mg/min/L [1, 8]: 13.0 Mg/min/L

Structure (SMILES): Cc1cn(-c2cc(NC(=O)c3ccc(C)c(Nc4nccc(-c5cccnc5)n4)c3)cc(C(F)(F)F)c2)cn1 [Exp 500, nilotinib HCl]
Initial Dissolution Rate [2]: 0.27

Structure (SMILES): CNC(=O)c1cc(Oc2ccc(NC(=O)Nc3ccc(Cl)c(C(F)(F)F)c3)cc2)ccn1 [Exp 560, sorafenib tosylate]
Initial Dissolution Rate [2]: 0.47

Structure (SMILES): Cc1cn(-c2cc(NC(=O)c3ccc(C)c(Nc4nccc(-c5cccnc5)n4)c3)cc(C(F)(F)F)c2)cn1 [Exp 2, Nilotinib HCl]
Conc (mg/L) 5 min [1, 4]: 0.2 mg/L
Conc (mg/L) 30 min [1, 5]: 0.2 mg/L
Conc (mg/L) 90 min [1, 6]: 0.2 mg/L
% solubilized 30 min. [1, 7]: 0.04%
AUC/90 min Mg/min/L [1, 8]: 23.5 Mg/min/L

Structure (SMILES): Cc1cn(-c2cc(NC(=O)c3ccc(C)c(Nc4nccc(-c5cccnc5)n4)c3)cc(C(F)(F)F)c2)cn1 [Exp 4, Nilotinib Base]
Conc (mg/L) 5 min ([1]; concentration of nilotinib HCl, FaSSIF solution (pH 6.5), 5 minutes dissolution): 0.6 mg/L
Conc (mg/L) 30 min ([1]; concentration of nilotinib HCl, FaSSIF solution (pH 6.5), 30 minutes dissolution): 0.5 mg/L
Conc (mg/L) 90 min ([1]; concentration of nilotinib HCl, FaSSIF solution (pH 6.5), 90 minutes dissolution): 0.2 mg/L
% solubilized 30 min. ([1]; nilotinib HCl, FaSSIF solution (pH 6.5), 30 minutes dissolution): 0.50%
AUC/90 min Mg/min/L ([1]; nilotinib HCl, FaSSIF solution (pH 6.5), Area Under the Curve during 90 minutes dissolution): 36.5 Mg/min/L

Structure (SMILES): COc1cc2ncnc(Nc3ccc(F)c(Cl)c3)c2cc1OCCCN1CCOCC1 [Exp 540, gefitinib]
Initial Dissolution Rate [2]: 2.2

Structure (SMILES): C[C@@H](Oc1cc(-c2cnn(C3CCNCC3)c2)cnc1N)c1c(Cl)ccc(F)c1Cl [Exp 570, crizotinib]
Initial Dissolution Rate [2]: 6.6

Structure (SMILES): Cc1cn(-c2cc(NC(=O)c3ccc(C)c(Nc4nccc(-c5cccnc5)n4)c3)cc(C(F)(F)F)c2)cn1 [Exp 3, Nilotinib HCl]
Conc (mg/L) 5 min [1, 4]: 0.2 mg/L
Conc (mg/L) 30 min [1, 5]: 0.3 mg/L
Conc (mg/L) 90 min [1, 6]: 0.2 mg/L
% solubilized 30 min. [1, 7]: 0.03%
AUC/90 min Mg/min/L [1, 8]: 21.8 Mg/min/L

Structure (SMILES): C#Cc1cccc(Nc2ncnc3cc(OCCOC)c(OCCOC)cc23)c1 [Exp 69, Erlotinib HCl]
Conc (mg/L) 5 min [3, 9]: 156.8 mg/L
Conc (mg/L) 30 min ([3]; concentration of erlotinib HCl, FeSSIF solution (pH 5), 30 minutes dissolution): 189.9 mg/L
Conc (mg/L) 90 min [3, 9]: 196 mg/L
% solubilized 30 min. ([3]; erlotinib HCl, FeSSIF pH 5, 30 min dissolution): 19.0%
AUC/90 min Mg/min/L ([3]; erlotinib HCl, FeSSIF pH 5, during 90 min dissolution): 16303 Mg/min/L

Structure (SMILES): CCCS(=O)(=O)Nc1ccc(F)c(C(=O)c2c[nH]c3ncc(-c4ccc(Cl)cc4)cc23)c1F [Exp 164, vemurafenib]
Conc (mg/L) 3 min ([1]; 3 min, pH 6.5): 0.3 mg/L
% solubilized 40 min. ([1]; 40 min, pH 6.5): 0.1%
Conc (mg/L) 40 min ([1]; 40 min, pH 6.5): 0.3 mg/L
Conc (mg/L) 80 min ([1]; 80 min, pH 6.5): 0.4 mg/L

Structure (SMILES): Cc1nc(Nc2ncc(C(=O)Nc3c(C)cccc3Cl)s2)cc(N2CCN(CCO)CC2)n1 [Exp 138, dasatinib]
Conc (mg/L) 3 min ([1]; 3 min, pH 6.5): 34.5 mg/L
Conc (mg/L) 40 min ([1]; 40 min, pH 6.5): 59.7 mg/L
Conc (mg/L) 80 min ([1]; 80 min, pH 6.5): 63.5 mg/L
% solubilized 40 min. ([1]; dasatinib, 40 min dissolution, FaSSIF pH 6.5): 6.0%
AUC/80 min ([1]; dasatinib, FaSSIF pH 6.5): 2396 Mg/min/L

Structure (SMILES): CNC(=O)c1cc(Oc2ccc(NC(=O)Nc3ccc(Cl)c(C(F)(F)F)c3)cc2)ccn1.Cc1ccc(S(=O)(=O)O)cc1 [Experiment 560]
Accumulated % of solubilized of remaining active substance at a given time (min) ([2]; 0 min): 0.2%
Accumulated % of solubilized of remaining active substance at a given time (min) ([2]; 0.5 min): 0.4%
Accumulated % of solubilized of remaining active substance at a given time (min) ([2]; 1 min): 0.7%
Accumulated % of solubilized of remaining active substance at a given time (min) ([2]; 1.5 min): 1.0%
Accumulated % of solubilized of remaining active substance at a given time (min) ([2]; 2 min): 1.3%
Accumulated % of solubilized of remaining active substance at a given time (min) ([2]; 3 min): 1.8%
Accumulated % of solubilized of remaining active substance at a given time (min) ([2]; 4 min): 2.2%
Accumulated % of solubilized of remaining active substance at a given time (min) ([2]; 5 min): 2.6%
Accumulated % of solubilized of remaining active substance at a given time (min) ([2]; 6 min): 3.0%
Accumulated % of solubilized of remaining active substance at a given time (min) ([2]; 7 min): 3.4%
Accumulated % of solubilized of remaining active substance at a given time (min) ([2]; 8 min): 3.8%
Accumulated % of solubilized of remaining active substance at a given time (min) ([2]; 9 min): 4.2%
Accumulated % of solubilized of remaining active substance at a given time (min) ([2]; 10 min): 4.6%
Accumulated % of solubilized of remaining active substance at a given time (min) ([2]; 20 min): 8.8%
Accumulated % of solubilized of remaining active substance at a given time (min) ([2]; 30 min): 12.6%
Accumulated % of solubilized of remaining active substance at a given time (min) ([2]; 40 min): 16.4%

Structure (SMILES): COc1cc2ncnc(Nc3ccc(F)c(Cl)c3)c2cc1OCCCN1CCOCC1 [Exp 131, gefitinib]
Conc (mg/L) 3 min ([1]; concentration of gefitinib after 3 min dissolution, FaSSIF pH 6.5): 121.8 mg/L
Conc (mg/L) 40 min ([1]; concentration of gefitinib after 40 min dissolution, FaSSIF pH 6.5): 153.1 mg/L
Conc (mg/L) 80 min ([1]; concentration of gefitinib after 80 min dissolution, FaSSIF pH 6.5): 148.1 mg/L
% solubilized 40 min. ([1]; gefitinib, 40 min dissolution, FaSSIF pH 6.5): 15.3%
AUC/80 min ([1]; gefitinib, FaSSIF pH 6.5): 5967 Mg/min/L

Structure (SMILES): Cc1cn(-c2cc(NC(=O)c3ccc(C)c(Nc4nccc(-c5cccnc5)n4)c3)cc(C(F)(F)F)c2)cn1 [Exp 41, Nilotinib HCl]
Conc (mg/L) 5 min [3, 10]: 0.6 mg/L
Conc (mg/L) 30 min ([3]; concentration of nilotinib HCl, FeSSIF solution (pH 5), 30 minutes dissolution): 0.9 mg/L
Conc (mg/L) 90 min [3, 10]: 0.9 mg/L
% solubilized 30 min. ([3]; nilotinib HCl, FeSSIF solution (pH 5), 30 minutes dissolution): 0.18%
AUC/90 min Mg/min/L ([3]; nilotinib HCl, FeSSIF solution (pH 5), Area Under the Curve during 90 minutes dissolution): 74.3 Mg/min/L

Continued, values first:

Conc (mg/L) 3 min ([1]; 3 min, pH 6.5): 89.3 mg/L
% solubilized 40 min. ([1]; 40 min, pH 6.5): 22.7%
Conc (mg/L) 40 min ([1]; 40 min, pH 6.5): 226.5 mg/L
Conc (mg/L) 80 min ([1]; 80 min, pH 6.5): 295.6 mg/L
Structure (SMILES): C[C@@H](Oc1cc(-c2cnn(C3CCNCC3)c2)cnc1N)c1c(Cl)ccc(F)c1Cl [Exp 150, crizotinib]

Conc (mg/L) 5 min ([1]; 5 min, pH 6.5): 28.9 mg/L
Conc (mg/L) 30 min ([1]; 30 min, pH 6.5): 6.25 mg/L
Conc (mg/L) 90 min ([1]; 90 min, pH 6.5): 4.6 mg/L
% solubilized 30 min. ([1]; erlotinib HCl, FaSSIF pH 6.5, 30 min dissolution): 0.6%
AUC/90 min Mg/min/L ([1]; erlotinib HCl, FaSSIF pH 6.5, during 90 min dissolution): 837 Mg/min/L
Structure (SMILES): C#Cc1cccc(Nc2ncnc3cc(OCCOC)c(OCCOC)cc23)c1 [Exp 58, erlotinib HCl]

Initial Dissolution Rate [2]: 0.103
Structure (SMILES): CS(=O)(=O)CCNCc1ccc(-c2ccc3ncnc(Nc4ccc(OCc5cccc(F)c5)c(Cl)c4)c3c2)o1 [Exp 530, lapatinib ditosylate]

Initial Dissolution Rate [2]: 0.303
Structure (SMILES): C#Cc1cccc(Nc2ncnc3cc(OCCOC)c(OCCOC)cc23)c1 [Exp 510, erlotinib HCl]

Conc (mg/L) 3 min ([1]; 3 min, pH 6.5): 0.6 mg/L
Conc (mg/L) 40 min ([1]; 40 min, pH 6.5): 0.6 mg/L
Conc (mg/L) 80 min ([1]; 80 min, pH 6.5): 0.6 mg/L
% solubilized 40 min. ([1]; axitinib, 40 min dissolution, FaSSIF pH 6.5): 0.1%
AUC/80 min ([1]; axitinib, FaSSIF pH 6.5): 47 Mg/min/L
Structure (SMILES): CNC(=O)c1ccccc1Sc1ccc2c(/C=C/c3ccccn3)n[nH]c2c1 [Exp 157, axitinib]

Conc (mg/L) 5 min ([1]; concentration of lapatinib after 5 min dissolution, FaSSIF pH 6.5): 2.9 mg/L
Conc (mg/L) 30 min ([1]; concentration of lapatinib after 30 min dissolution, FaSSIF pH 6.5): 6.0 mg/L
Conc (mg/L) 90 min ([1]; concentration of lapatinib after 90 min dissolution, FaSSIF pH 6.5): 6.5 mg/L
% solubilized 30 min. ([1]; lapatinib, 30 min dissolution, FaSSIF pH 6.5): 0.3%
AUC/90 min ([1]; lapatinib, during 90 min dissolution, FaSSIF pH 6.5): 494 Mg/min/L
Structure (SMILES): CS(=O)(=O)CCNCc1ccc(-c2ccc3ncnc(Nc4ccc(OCc5cccc(F)c5)c(Cl)c4)c3c2)o1 [Exp 110, lapatinib base]

Conc (mg/L) 5 min ([1]; 5 min, pH 6.5): 46.2 mg/L
% solubilized 30 min. ([1]; 30 min, pH 6.5): 2.4%
Conc (mg/L) 30 min ([1]; 30 min, pH 6.5): 24.4 mg/L
Conc (mg/L) 90 min ([1]; 90 min, pH 6.5): 15.0 mg/L
Structure (SMILES): Cc1ccc(Nc2nccc(N(C)c3ccc4c(C)n(C)nc4c3)n2)cc1S(N)(=O)=O [Exp 84, pazopanib]
